Counter-ions that a name gives are not always drawn.
How the values were obtained:
[1] = biological target: CDK1/cyclin B; assay: Protein kinase assay, CDK1/cyclin B; type: biochemical; conditions: 15 µM ATP, 30 °C, triplicates
Description: (§1) Evaluation of the protein kinase inhibitory activity was performed in vitro as previously described. Briefly, homogenization buffer: 60 mM β-glycerophosphate, 15 mM p-nitrophenylphosphate, 25 mM Mops (pH 7.2), 15 mM EGTA, 15 mM MgCl2, 1 mM dithiothreitol, 1 mM sodium vanadate, 1 mM NaF, 1 mM phenylphosphate, 10 µg leupeptin mL^−1, 10 µg aprotinin mL^−1, 10 µg soybean trypsin inhibitor mL^−1, and 100 µg benzamidine. Buffer A: 10 mM MgCl2, 1 mM EGTA, 1 mM dithiothreitol, 25 mM Tris-HCl pH 7.5, 50 µg heparin mL^−1. Buffer C: homogenization buffer but 5 mM EGTA, no NaF and no protease inhibitors. Kinase activities were assayed in triplicates in buffer A or C at 30 °C, at a final ATP concentration of 15 µM. The order of mixing the reagents was: buffers, substrate, enzyme, inhibitor and ^33P-radiolabelled ATP. Isolated compounds were tested against a panel of eight kinases; namely cyclin-dependent kinase 1 (CDK1/cyclin B), cyclin-dependent kinase 2 (CDK2/cyclin A), cyclin-dependent kinase 5 (CDK5/p25), cyclin-dependent kinase 9 (CDK9/cyclin T), casein kinase 1 (CK1), Cdc2-like kinase 1 (CLK1), dual-specificity tyrosine-(Y)-phosphorylation regulated kinase 1A (DYRK1A) and glycogen synthase kinase-3α/β (GSK-3α/β).

[2] = biological target: casein kinase 1 (CK1); assay: Protein kinase assay, casein kinase 1; type: biochemical; conditions: 15 µM ATP, 30 °C, triplicates
Description: as §1

[3] = biological target: glycogen synthase kinase-3α/β (GSK-3α/β); assay: Protein kinase assay, GSK-3α/β; type: biochemical; conditions: 15 µM ATP, 30 °C, triplicates, read-out: GSK3 IC50
Description: as §1

[4] = biological target: CDK5/p25 (Homo sapiens, UniProt Q00535); assay: Protein kinase assay, CDK5/p25; type: biochemical; conditions: 15 µM ATP, 30 °C, triplicates
Description: as §1

[5] = biological target: CDK2/cyclin A (Homo sapiens, UniProt P24941); assay: Protein kinase assay, CDK2/cyclin A; type: biochemical; conditions: 15 µM ATP, 30 °C, triplicates
Description: as §1

[6] = biological target: CDK9/cyclin T (Homo sapiens, UniProt P50750); assay: Protein kinase assay, CDK9/cyclin T; type: biochemical; conditions: 15 µM ATP, 30 °C, triplicates
Description: as §1

[7] = system: topoisomerase II; design: method as in PMID 7473578; conditions: catalytic DNA unwinding and decatenation assays, KSDS assay; cited from earlier work
[8] = system: Staphylococcus aureus ATCC 6538; assay: Antibacterial assay, growth inhibition in liquid culture; type: cell-based; conditions: ATCC6538, S. aureus ATCC 6538, OD 620 nm after 16 to 18 h, read-out: antibacterial activity IC50 against Staphylococcus aureus
Description: The antibacterial activity assay was conducted on the bacterial strain Gram-positive Staphylococcus aureus ATCC 6538 and Gram-negative Escherichia coli ATCC 8739 evaluated in vitro by determining the IC50. A pre-culture of 5 mL LB (Luria Bertoni) medium was prepared by inoculating a colony of the bacterial strain and was incubated at 37 °C with stirring overnight. The concentration of the pre-culture was assessed by measuring the optical density OD at 620 nm and adjusted by dilution to obtain a suspension of 0.03 OD. The […] was determined by a liquid test in 96-well-plates. A quantity of 200 µL of the bacterial suspension was distributed in each well and 10 µL of the extracts, fractions or pure compounds solutions in DMSO (10, 5 and 2 mg/mL, respectively) were added in triplicate. The 96 well-plates were incubated at 30 °C for 16 to 18 h with shaking (450 rpm). The optical density of the wells was measured at 620 nm and the results were interpreted by calculating the percentage of growth inhibition in each well using the formula: % inhibition = 100 − (DOS − DOB)/(DOT − DOB) ×100 where T = bacterial suspension without test sample, B = culture medium without bacteria and S = bacterial suspension test sample. Ampicillin and chloramphenicol were used as positive control against S. aureus and E. coli, respectively.

[9] = biological target: DYRK1A (Rattus norvegicus, UniProt Q63470); assay: Protein kinase assay, DYRK1A; type: biochemical
Description: as §1

[10] = biological target: human farnesyltransferase; design: method as in PMID 20634081; conditions: read-out: IC50 against human farnesyltransferase; cited from earlier work
[11] = biological target: yeast farnesyltransferase; design: method as in PMID 20634081; conditions: read-out: IC50 against yeast farnesyltransferase; cited from earlier work

Chain of CDK9/cyclin T (P50750 whole entry, species assumed): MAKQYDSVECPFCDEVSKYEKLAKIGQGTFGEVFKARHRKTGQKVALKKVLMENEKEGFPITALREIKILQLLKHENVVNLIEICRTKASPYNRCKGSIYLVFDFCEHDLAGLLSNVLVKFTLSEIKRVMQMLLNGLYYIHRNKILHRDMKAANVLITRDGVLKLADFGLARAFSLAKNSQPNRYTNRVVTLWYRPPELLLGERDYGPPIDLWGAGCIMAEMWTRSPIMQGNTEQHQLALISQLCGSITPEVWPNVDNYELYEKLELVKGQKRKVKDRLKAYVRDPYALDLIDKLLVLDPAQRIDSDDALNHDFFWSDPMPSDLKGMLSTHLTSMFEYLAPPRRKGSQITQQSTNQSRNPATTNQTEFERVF
Chain of CDK9/cyclin T (O60563 whole entry partner, species assumed): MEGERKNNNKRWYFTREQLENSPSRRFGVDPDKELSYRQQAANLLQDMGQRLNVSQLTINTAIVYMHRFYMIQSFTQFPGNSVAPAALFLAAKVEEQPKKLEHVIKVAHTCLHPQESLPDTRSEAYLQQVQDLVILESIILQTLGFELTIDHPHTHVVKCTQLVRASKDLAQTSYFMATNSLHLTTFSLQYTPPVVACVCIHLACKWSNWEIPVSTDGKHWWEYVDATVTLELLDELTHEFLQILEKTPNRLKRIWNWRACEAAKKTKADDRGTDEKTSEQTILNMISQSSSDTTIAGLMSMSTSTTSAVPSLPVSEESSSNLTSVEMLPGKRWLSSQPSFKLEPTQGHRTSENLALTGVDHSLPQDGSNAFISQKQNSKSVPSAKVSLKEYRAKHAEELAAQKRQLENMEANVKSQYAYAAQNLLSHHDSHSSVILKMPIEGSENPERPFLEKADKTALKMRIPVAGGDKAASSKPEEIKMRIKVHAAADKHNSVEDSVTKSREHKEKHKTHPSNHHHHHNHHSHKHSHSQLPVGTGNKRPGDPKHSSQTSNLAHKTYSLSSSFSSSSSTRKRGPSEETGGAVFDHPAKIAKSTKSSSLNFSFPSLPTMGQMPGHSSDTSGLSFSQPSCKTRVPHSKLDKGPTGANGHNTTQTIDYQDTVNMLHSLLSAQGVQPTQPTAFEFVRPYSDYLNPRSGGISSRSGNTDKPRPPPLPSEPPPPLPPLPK
Chain of CDK5/p25 (Q00535 whole entry, species assumed): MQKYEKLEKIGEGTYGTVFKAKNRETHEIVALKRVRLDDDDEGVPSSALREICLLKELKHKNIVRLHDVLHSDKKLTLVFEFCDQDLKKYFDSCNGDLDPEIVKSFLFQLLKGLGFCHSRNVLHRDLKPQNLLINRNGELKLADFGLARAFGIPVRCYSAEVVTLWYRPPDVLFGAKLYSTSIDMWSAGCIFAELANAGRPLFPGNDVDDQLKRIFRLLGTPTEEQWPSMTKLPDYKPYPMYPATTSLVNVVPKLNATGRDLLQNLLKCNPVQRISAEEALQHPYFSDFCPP
Chain of CDK5/p25 (Q15078 99-307 partner limits assumed, species assumed): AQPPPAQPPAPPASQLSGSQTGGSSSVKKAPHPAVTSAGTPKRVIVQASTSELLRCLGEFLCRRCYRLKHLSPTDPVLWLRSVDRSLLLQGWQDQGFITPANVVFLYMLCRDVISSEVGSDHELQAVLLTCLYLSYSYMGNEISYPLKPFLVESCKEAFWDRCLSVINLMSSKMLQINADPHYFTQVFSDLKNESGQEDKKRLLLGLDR

Q: For `C[C@@]12CCCc3coc(c31)C(=O)c1cc3c(cc12)C(=O)C1=C(NCCS1(=O)=O)C3=O` [Compound 6, adociaquinone B], which IC50 [1] is on record?
A: > 10 µM

Q: What about the IC50 [2] of the same molecule?
A: > 10 µM

Q: What about the IC50 [3] of the same molecule?
A: > 10 µM

Q: What about the IC50 [4] of the same molecule?
A: > 10 µM

Q: What about the IC50 [5] of the same molecule?
A: > 10 µM

Q: And the IC50 [6]?
A: 3 µM

Q: What about the “inhibition of topoisomerase II (in words)” value [7] of the same molecule?
A: inhibition of topoisomerase II

Q: For `C[C@@]12CCCc3coc(c31)C(=O)c1cc3c(cc12)C(=O)C=C(NCCS(=O)(=O)O)C3=O` [Compound 8, secoadociaquinone B], which IC50 [1] is on record?
A: > 10 µM

Q: And the IC50 [2]?
A: > 10 µM

Q: And the IC50 [3]?
A: > 10 µM

Q: What about the IC50 [4] of the same molecule?
A: 6 µM

Q: And the IC50 [5]?
A: > 10 µM

Q: What about the IC50 [6] of the same molecule?
A: > 10 µM

Q: For `C[C@@]12CCCc3coc(c31)C(=O)c1cc3c(O)ccc(OS(=O)(=O)O)c3cc12` [Compound 11, xestoquinol sulfate], which IC50 [8] is on record?
A: 125 µM

Q: With `C[C@@]12CCC(=O)c3coc(c31)C(=O)c1cc3c(O)ccc(OS(=O)(=O)O)c3cc12` [Compound 12] as the molecule, how does the IC50 [1] read?
A: 4.3 µM

Q: And the IC50 [2]?
A: 5.2 µM

Q: What about the IC50 [3] of the same molecule?
A: 0.61 µM

Q: And the IC50 [4]?
A: 2.2 µM

Q: And the IC50 [5]?
A: 7.5 µM

Q: And the IC50 [6]?
A: 0.5 µM

Q: For `CO[C@]12OC(O)C3=C1[C@@](C)(CCC3=O)c1cc3c(OS(=O)(=O)O)ccc(O)c3cc1C2=O` (stereo partly drawn) [Compound 13], which IC50 [1] is on record?
A: > 10 µM

Q: And the IC50 [2]?
A: > 10 µM

Q: And the IC50 [3]?
A: > 10 µM

Q: What about the “activity against DYRK1A (in words)” value [9] of the same molecule?
A: marginal activity

Q: And the IC50 [4]?
A: > 10 µM

Q: And the IC50 [5]?
A: > 10 µM

Q: And the IC50 [6]?
A: > 10 µM

Q: With `CC1=CCCC2(C)C1=C(O)C(=O)c1cc3c(cc12)C(=O)C=CC3=O` (stereo not drawn) [Orhalquinone] as the molecule, how does the IC50 [10] read?
A: 0.4 µM

Q: And the IC50 [11]?
A: 0.4 µM

Q: Which “inhibition of topoisomerase II (in words)” value [7] does the source give for adociaquinone A [Compound 5] here?
A: inhibition of topoisomerase II

— paper PMC4446597, “Novel Adociaquinone Derivatives from the Indonesian Sponge Xestospongia sp” (Marine Drugs, 2015)
